Test results: the supplement of paper PMC8671470

What was measured:
Details in all cases: 72 h
NOMO-1 = experiment: cell viability (% survival relative to DMSO control, bortezomib = 0%); higher = less cytotoxic
How it was run: (§1)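 Fifteen myeloid leukaemia cell lines (10 AML, 5 CML) were seeded at a density titrated to the linear growth range. They went into 384-well plates with compounds pre-printed at 1, 10, 100, 1000 or 10000 nM in duplicate. After 72 h at 37 °C with 5% CO2, viability was read by CellTiter-Glo luminescence. Values are percent survival, with vehicle set to 100% and a 10 µM positive control to 0%, averaged over the duplicates.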

Mono-Mac-6 = experiment: as above
How it was run: as §1

THP-1 = experiment: as above
How it was run: as §1

KU-812 = experiment: as above
How it was run: as §1

[1] = test system: myeloid leukemia patient primary cells Pat.6; experiment: cell viability (% survival relative to DMSO control); higher = less cytotoxic
How it was run: (§2)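 Mononuclear cells from patients with AML or CML were thawed, purified on Ficoll and placed in RPMI 1640 with 10% FBS at 10,000 cells/well on 384-well plates. The plates came pre-printed with 70 compounds at five tenfold concentrations spanning 1–10,000 nM, in duplicate, and cells were exposed for 72 h. CellTiter-Glo gave viability, scaled between DMSO wells and wells with 10 μM proteasome inhibitor. Where reported, area under the curve was obtained from log-logistic fits with four parameters using the drc and PharmacoGx R packages.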

[2] = test system: myeloid leukemia patient primary cells Pat.5; experiment: as above
How it was run: as §2

[3] = test system: myeloid leukemia patient primary cells Pat.14; experiment: as above
How it was run: as §2

[4] = test system: myeloid leukemia patient primary cells Pat.2; experiment: as above
How it was run: as §2

[5] = test system: myeloid leukemia patient primary cells Pat.9; experiment: as above
How it was run: as §2

[6] = test system: myeloid leukemia patient primary cells Pat.7; experiment: as above
How it was run: as §2

[7] = test system: myeloid leukemia patient primary cells Pat.13; experiment: as above
How it was run: as §2

[8] = test system: myeloid leukemia patient primary cells Pat.1; experiment: as above
How it was run: as §2

[9] = test system: myeloid leukemia patient primary cells Pat.8; experiment: as above
How it was run: as §2

[10] = test system: myeloid leukemia patient primary cells Pat.12; experiment: as above
How it was run: as §2

[11] = test system: myeloid leukemia patient primary cells Pat.3; experiment: as above
How it was run: as §2

[12] = test system: myeloid leukemia patient primary cells Pat.11; experiment: as above
How it was run: as §2

[13] = test system: myeloid leukemia patient primary cells Pat.15; experiment: as above
How it was run: as §2

[14] = test system: myeloid leukemia patient primary cells Pat.4; experiment: as above
How it was run: as §2

[15] = test system: myeloid leukemia patient primary cells Pat.10; experiment: as above
How it was run: as §2

SMILES: Nc1ccn([C@@H]2O[C@H](CO)[C@@H](O)C2(F)F)c(=O)n1 [Gemcitabine]
- cell viability (NOMO-1; 1 nM): 103%
- cell viability (NOMO-1; 10 nM): 24.5%
- cell viability (NOMO-1; 100 nM): 3.18%
- cell viability (NOMO-1; 1000 nM): 1.37%
- cell viability (NOMO-1; 10000 nM): 0.238%
- cell viability (Mono-Mac-6; 1 nM): 95.1%
- cell viability (Mono-Mac-6; 10 nM): 2.34%
- cell viability (Mono-Mac-6; 100 nM): 1.01%
- cell viability (Mono-Mac-6; 1000 nM): 0.852%
- cell viability (Mono-Mac-6; 10000 nM): 0.24%
- cell viability (THP-1; 1 nM): 110%
- cell viability (THP-1; 10 nM): 44.4%
- cell viability (THP-1; 100 nM): 30.5%
- cell viability (THP-1; 1000 nM): 23.5%
- cell viability (THP-1; 10000 nM): 20.4%
- cell viability (KU-812; 1 nM): 90.8%
- cell viability (KU-812; 10 nM): 17.4%
- cell viability (KU-812; 100 nM): 7.87%
- cell viability (KU-812; 1000 nM): 6.94%
- cell viability (KU-812; 10000 nM): 6.04%
- cell viability ([1]; 1 nM): 77.8%
- cell viability ([1]; 10 nM): 84%
- cell viability ([1]; 100 nM): 98.2%
- cell viability ([1]; 1000 nM): 91.2%
- cell viability ([1]; 10000 nM): 81.8%
- cell viability ([2]; 1 nM): 4.78%
- cell viability ([2]; 10 nM): 2.01%
- cell viability ([2]; 100 nM): 88.3%
- cell viability ([2]; 1000 nM): 27.6%
- cell viability ([2]; 10000 nM): 2.39%
- cell viability ([3]; 1 nM): 52.8%
- cell viability ([3]; 10 nM): 44.5%
- cell viability ([3]; 100 nM): > 100%
- cell viability ([3]; 1000 nM): 67.4%
- cell viability ([3]; 10000 nM): 25.8%
- cell viability ([4]; 1 nM): 90.2%
- cell viability ([4]; 10 nM): 95.4%
- cell viability ([4]; 100 nM): 98.4%
- cell viability ([4]; 1000 nM): 82.9%
- cell viability ([4]; 10000 nM): 48.5%
- cell viability ([5]; 1 nM): 3.95%
- cell viability ([5]; 10 nM): 6.11%
- cell viability ([5]; 100 nM): 56.7%
- cell viability ([5]; 1000 nM): 15.4%
- cell viability ([5]; 10000 nM): 6.78%
- cell viability ([6]; 1 nM): 52.6%
- cell viability ([6]; 10 nM): 3.48%
- cell viability ([6]; 100 nM): 95.9%
- cell viability ([6]; 1000 nM): 65%
- cell viability ([6]; 10000 nM): 16.3%
- cell viability ([7]; 1 nM): 89.5%
- cell viability ([7]; 10 nM): 84.5%
- cell viability ([7]; 100 nM): 90.2%
- cell viability ([7]; 1000 nM): 86.3%
- cell viability ([7]; 10000 nM): 36.4%
- cell viability ([8]; 1 nM): 83.4%
- cell viability ([8]; 10 nM): 92.9%
- cell viability ([8]; 100 nM): 99.6%
- cell viability ([8]; 1000 nM): 76.6%
- cell viability ([8]; 10000 nM): 54.5%
- cell viability ([9]; 1 nM): 76.5%
- cell viability ([9]; 10 nM): 71.6%
- cell viability ([9]; 100 nM): 91.5%
- cell viability ([9]; 1000 nM): 85.4%
- cell viability ([9]; 10000 nM): 33.7%
- cell viability ([10]; 1 nM): 96.3%
- cell viability ([10]; 10 nM): 95.9%
- cell viability ([10]; 100 nM): 98.4%
- cell viability ([10]; 1000 nM): 92.4%
- cell viability ([10]; 10000 nM): 82.8%
- cell viability ([11]; 1 nM): 61.9%
- cell viability ([11]; 10 nM): 22.1%
- cell viability ([11]; 100 nM): 25%
- cell viability ([11]; 1000 nM): 7.9%
- cell viability ([11]; 10000 nM): 4.31%
- cell viability ([12]; 1 nM): 95.3%
- cell viability ([12]; 10 nM): 91.6%
- cell viability ([12]; 100 nM): > 100%
- cell viability ([12]; 1000 nM): 83.6%
- cell viability ([12]; 10000 nM): 67.2%
- cell viability ([13]; 1 nM): 96.3%
- cell viability ([13]; 10 nM): 80.8%
- cell viability ([13]; 100 nM): 82.5%
- cell viability ([13]; 1000 nM): 78%
- cell viability ([13]; 10000 nM): 41.8%
- cell viability ([14]; 1 nM): 75.4%
- cell viability ([14]; 10 nM): 93.4%
- cell viability ([14]; 100 nM): 82.8%
- cell viability ([14]; 1000 nM): 62.2%
- cell viability ([14]; 10000 nM): 32.2%
- cell viability ([15]; 1 nM): 67.4%
- cell viability ([15]; 10 nM): 32.6%
- cell viability ([15]; 100 nM): 64.3%
- cell viability ([15]; 1000 nM): 45.5%
- cell viability ([15]; 10000 nM): 7.03%

SMILES: Clc1cc(Cl)c(OCC#CI)cc1Cl [Haloprogin]
- cell viability (NOMO-1; 1 nM): 109%
- cell viability (NOMO-1; 10 nM): 103%
- cell viability (NOMO-1; 100 nM): 109%
- cell viability (NOMO-1; 1000 nM): 98.2%
- cell viability (NOMO-1; 10000 nM): 0.243%
- cell viability (Mono-Mac-6; 1 nM): 103%
- cell viability (Mono-Mac-6; 10 nM): 95.7%
- cell viability (Mono-Mac-6; 100 nM): 98.8%
- cell viability (Mono-Mac-6; 1000 nM): 94.1%
- cell viability (Mono-Mac-6; 10000 nM): 0.149%
- cell viability (THP-1; 1 nM): 101%
- cell viability (THP-1; 10 nM): 97.4%
- cell viability (THP-1; 100 nM): 100%
- cell viability (THP-1; 1000 nM): 74%
- cell viability (THP-1; 10000 nM): 0.288%
- cell viability (KU-812; 1 nM): 104%
- cell viability (KU-812; 10 nM): 95%
- cell viability (KU-812; 100 nM): 107%
- cell viability (KU-812; 1000 nM): 80.6%
- cell viability (KU-812; 10000 nM): 2.77%
- cell viability ([1]; 1 nM): > 100%
- cell viability ([1]; 10 nM): > 100%
- cell viability ([1]; 100 nM): 93.3%
- cell viability ([1]; 1000 nM): 54.7%
- cell viability ([1]; 10000 nM): < 0%
- cell viability ([2]; 1 nM): 87.2%
- cell viability ([2]; 10 nM): 69.7%
- cell viability ([2]; 100 nM): 2.24%
- cell viability ([2]; 1000 nM): < 0%
- cell viability ([2]; 10000 nM): 0.912%
- cell viability ([3]; 1 nM): 88.5%
- cell viability ([3]; 10 nM): 96.7%
- cell viability ([3]; 100 nM): 68.3%
- cell viability ([3]; 1000 nM): 7.52%
- cell viability ([3]; 10000 nM): < 0%
- cell viability ([4]; 1 nM): 93.8%
- cell viability ([4]; 10 nM): 96.9%
- cell viability ([4]; 100 nM): 92.1%
- cell viability ([4]; 1000 nM): 65%
- cell viability ([4]; 10000 nM): < 0%
- cell viability ([5]; 1 nM): 80.9%
- cell viability ([5]; 10 nM): 62.4%
- cell viability ([5]; 100 nM): 43.4%
- cell viability ([5]; 1000 nM): 3.45%
- cell viability ([5]; 10000 nM): 3.68%
- cell viability ([6]; 1 nM): 72.1%
- cell viability ([6]; 10 nM): > 100%
- cell viability ([6]; 100 nM): > 100%
- cell viability ([6]; 1000 nM): 3.48%
- cell viability ([6]; 10000 nM): < 0%
- cell viability ([7]; 1 nM): 88.1%
- cell viability ([7]; 10 nM): 86%
- cell viability ([7]; 100 nM): 91%
- cell viability ([7]; 1000 nM): 67.8%
- cell viability ([7]; 10000 nM): 26.3%
- cell viability ([8]; 1 nM): 91.8%
- cell viability ([8]; 10 nM): 99.9%
- cell viability ([8]; 100 nM): 82%
- cell viability ([8]; 1000 nM): 48.3%
- cell viability ([8]; 10000 nM): 14.1%
- cell viability ([9]; 1 nM): 66.4%
- cell viability ([9]; 10 nM): > 100%
- cell viability ([9]; 100 nM): 81.4%
- cell viability ([9]; 1000 nM): 67.1%
- cell viability ([9]; 10000 nM): 1.78%
- cell viability ([10]; 1 nM): 92.9%
- cell viability ([10]; 10 nM): 96.3%
- cell viability ([10]; 100 nM): 94.2%
- cell viability ([10]; 1000 nM): 67.1%
- cell viability ([10]; 10000 nM): 0.0486%
- cell viability ([11]; 1 nM): > 100%
- cell viability ([11]; 10 nM): 99.9%
- cell viability ([11]; 100 nM): 92.4%
- cell viability ([11]; 1000 nM): 1.81%
- cell viability ([11]; 10000 nM): < 0%
- cell viability ([12]; 1 nM): 94.1%
- cell viability ([12]; 10 nM): > 100%
- cell viability ([12]; 100 nM): 96%
- cell viability ([12]; 1000 nM): 81.8%
- cell viability ([12]; 10000 nM): 1.14%
- cell viability ([13]; 1 nM): 85.7%
- cell viability ([13]; 10 nM): 98.8%
- cell viability ([13]; 100 nM): 85.4%
- cell viability ([13]; 1000 nM): 66.8%
- cell viability ([13]; 10000 nM): 6.74%
- cell viability ([14]; 1 nM): 88.7%
- cell viability ([14]; 10 nM): 87.3%
- cell viability ([14]; 100 nM): 85.3%
- cell viability ([14]; 1000 nM): 13%
- cell viability ([14]; 10000 nM): 28.3%
- cell viability ([15]; 1 nM): 43.6%
- cell viability ([15]; 10 nM): 75.4%
- cell viability ([15]; 100 nM): 46.9%
- cell viability ([15]; 1000 nM): 23.9%
- cell viability ([15]; 10000 nM): 93.2%
